Data: US8609173B2, “Compositions comprising sweetness enhancers and methods of making them” (Senomyx Inc., priority 2008, dated 2013)

Columns and labels:
[1] = test system: External panelists; assay: Line scale sensory test, Example 6, fructose as sweetener, pH 7.1; format: in vivo, Human; set-up: Average Sweetness / Average Bitterness: scale not given here
Description: Sensory evaluations were performed using fructose as the sweetener and 3-(4-amino-2,2-dioxide-1H-benzo[c][1,2,6]thiadiazin-5-yloxy)-2′,2′-dimethyl-N-propylpropanamide as the sweetness enhancer, using methods similar to those using sucrose, above. […]

[2] = test system: Panelists; assay: Paired comparison human taste test, chocolate milk; format: in vivo
Description: Chocolate beverage powder can be prepared using, for example, the following ingredients and reconstituted in milk.
A KitchenAide mixer is equipped with a wire whip attachment and used for mixing sugar and salt for 5 seconds. Lecithin is added and the resulting mixture is mixed for an additional 5 seconds. Cocoa, maltodextrin, and vanillin are added and the mixture is mixed for another 10 seconds.
Chocolate milk preparations were prepared by combining a chocolate beverage mixture with milk and the appropriate amount of sugar, or sugar and 3-(4-amino-2,2-dioxide-1H-benzo[c][1,2,6]thiadiazin-5-yloxy)-2′,2′-dimethyl-N-propylpropanamide. 75.0 grams of Full Sugar Chocolate Beverage Powder was mixed into 250 mls of cold (40° F.) 2% lowfat milk and mixed with a wire whip until dissolved. 45.5 grams of the 50% Sugar Chocolate Beverage Powder was mixed into 250 mls of cold (40° F.) 2% lowfat milk and mixed with a wire whip until the powder was dissolve. The Compound A was dissolved into a 0.10% concentration level in propylene glycol and added to the chocolate milk, mixed with a wire whip until homogenous, about 2 minutes.

[3] = test system: Panelists; assay: Paired comparison human taste test, frosted flakes cereal; format: in vivo
Description: Frosted Flakes cereals were prepared using the following ingredients and evaluated for sweetness. The sugar frosting contained a reduced amount of sucrose (compared to the “100% sucrose” sugar coated flake cereal) and 15 ppm of 3-(4-amino-2,2-dioxide-1H-benzo[c][1,2,6]thiadiazin-5-yloxy)-2′,2′-dimethyl-N-propylpropanamide.
A Kitchen Aide mixer is equipped with a wire whip attachment and used for mixing sugar and tapioca dextrin. Mix for 5 minutes. Dissolve gum arabic in water using a magnetic stir bar and stir plate. Mix for 1 minute. Add the remaining dry ingredients and compound (if necessary) and heat until the solution reaches 230° F. for 1 minute. The compound was solubilized in ethanol to a 0.30% concentration level before adding to the syrup; this gave a better homogeneity throughout the syrup.
Place weighed amount of corn flakes in the tumbler. Add desired amount of syrup as soon as the syrup is ready. Tumble for 30 minutes while heating the flakes with a heat gun. Further dry the flakes in the convection oven for 200° F. for 50 minutes.
Panelists evaluated the two cereal samples in a paired comparison taste test procedure and were instructed to select the sweeter of the two samples.

[4] = test system: Panelists; assay: Paired comparison taste test, flavored water; format: in vivo, Human
Description: Two sweetened water solutions were prepared and compared: Flavored Water with 9% Sucrose vs. Flavored Water with 6% Sucrose+2.3 ppm (6.49 μM) of 5-(neopentyloxy)-1H-benzo[c][1,2,6]thiadiazin-4-amino-2,2-dioxide.
Mixing procedures: Dissolve acid into the water using a Lightnin® blender, mix for 5 minutes. Add sugar and continue to mix until dissolved. Add flavors last. Dissolve Compound A into a 0.50% propylene glycol mixture, add last and mix for another 5 minutes. Procedure:
(§1) Panelists evaluated two sweetened water solutions in a paired comparison taste test procedure and were instructed to select the sweeter of the two samples. They perform a total of three paired comparison tests each containing the following samples: Flavored Water with 9% Sucrose vs. Flavored Water with 6% Sucrose+2.3 ppm (6.49 μM) 5-(neopentyloxy)-1H-benzo[c][1,2,6]thiadiazin-4-amino-2,2-dioxide.
Two sweetened water solutions were prepared and compared: Flavored Water with 9% Sucrose vs. Flavored Water with 6% Sucrose+2.44 ppm (6.49 μM) of 3-(4-amino-2,2-dioxide-1H-benzo[c][1,2,6]thiadiazin-5-yloxy)-2′,2′-dimethyl-N-propylpropanamide.
as §1, with “Sucrose+2.44” for “Sucrose+2.3”, “3-(4-amino-2,2-dioxide-1H-benzo[c][1,2,6]thiadiazin-5-yloxy)-2′,2′-dimethyl-N-propylpropanamide.” for “5-(neopentyloxy)-1H-benzo[c][1,2,6]thiadiazin-4-amino-2,2-dioxide.”

[5] = test system: External panelists; assay: Paired comparison test (2-alternative forced choice), Example 3B, sucrose; format: in vivo, Human; conditions: 9% sucrose chosen, vs 6% Sucrose + 10 ppm (35.29 μM) compound; n = 28
Description: Several types of sensory tests were used to determine the efficacy of 5-(neopentyloxy)-1H-benzo[c][1,2,6]thiadiazin-4-amino-2,2-dioxide in enhancing sweetness of sucrose. Two types of tests were conducted: • 1) Sensory scaling tests were performed using a 15-point percent sucrose equivalence scale for sweetness in order to evaluate sweetness enhancement 5-(neopentyloxy)-1H-benzo[c][1,2,6]thiadiazin-4-amino-2,2-dioxide in sucrose, or in fructose. • 2) Paired comparison tests (2-alternative forced choice difference tests) were used to determine sweetness equivalence for solutions of sucrose vs. 5-(neopentyloxy)-1H-benzo[c][1,2,6]thiadiazin-4-amino-2,2-dioxide or buffer vs. 5-(neopentyloxy)-1H-benzo[c][1,2,6]thiadiazin-4-amino-2,2-dioxide. Stimuli:
Panelists performed 2 directional paired comparison tests to determine which sample was sweeter. The test compared the sweetness intensity of 9% sucrose to that of 6% sucrose+10 ppm (35.29 μM) 5-(neopentyloxy)-1H-benzo[c][…]thiadiazin-4-amino-2,2-dioxide. Panelists were also to comment on the difficulty of the test and if any off tastes were perceived. Samples were completely randomized.

[6] = 33% Reduced Sucrose Frosted Flakes + 15 ppm compound chosen, 14 panelists

CCCNC(=O)C(C)(C)COc1cccc2c1C(N)=NS(=O)(=O)N2 [3-(4-amino-2,2-dioxide-1H-benzo[c][1,2,6]thiadiazin-5-yloxy)-2′,2′-dimethyl-N-propylpropanamide]
off tastes ([1]; 25 μM compound in 6% fructose, LSB, pH 7.1): no significant off tastes | Average Sweetness ([1]; 30 μM (10.6 ppm) compound, no fructose, pH 7.1, n = 30): 0.6 | off tastes ([1]; 30.0 μM and 40 μM compound): no significant off tastes | Average Bitterness ([1]; 30 μM compound, no fructose, n = 30): 0.4 | Sweetness vs fructose solutions (conclusion) ([1]; 30.0 μM compound, p>0.10): not significantly different in sweetness compared to 0% and 2% fructose respectively | Average Sweetness ([1]; 40 μM (14.2 ppm) compound, no fructose, pH 7.1, n = 30): 1.1 | Average Bitterness ([1]; 40 μM compound, no fructose, n = 30): 0.6 | Sweetness vs fructose solutions (conclusion) ([1]; 40 μM compound, p>0.10): not significantly different in sweetness compared to 0% and 2% fructose respectively | off tastes ([1]; 100 μM compound in 6% fructose, LSB, pH 7.1): no significant off tastes | Average Sweetness ([1]; 6% Fructose + 25 μM (8.9 ppm) compound, pH 7.1, n = 26): 7.8 | Average Bitterness ([1]; 6% Fructose + 25 μM compound, n = 26): 0.2 | Average Sweetness ([1]; 6% Fructose + 100 μM (35.4 ppm) compound, pH 7.1, n = 14): 9.2 | Average Bitterness ([1]; 6% Fructose + 100 μM compound, n = 14): 0.3 | Sweetness vs fructose solutions (conclusion) ([1]; 6% fructose + 25 μM compound, p>0.05): significantly sweeter than 6% fructose | Sweetness vs fructose solutions (conclusion) ([1]; 6% fructose + 100 μM compound, p>0.10): not significantly different than 8% or 9% fructose | Sample selected as sweeter by panelists, Total ([2]; Chocolate Milk with 50% Sugar + compound (7 ppm/(20 μM)) chosen, vs 100% Sugar, n = 51): 28 | Sweetness comparison (conclusion) ([2]; chocolate milk with 50% Sugar + compound (7 ppm/(20 μM)) vs full sugar, p>0.10): not significantly different in sweetness | Sample selected as sweeter by panelists, Test 1 [3, 6]: 6 | Sample selected as sweeter by panelists, Test 2 [3, 6]: 9 | Sample selected as sweeter by panelists, Test 3 [3, 6]: 9 | Sample selected as sweeter by panelists, Total ([3]; 33% Reduced Sucrose Frosted Flakes + 15 ppm compound chosen, n = 42): 24 | Sweetness comparison (conclusion) ([3]; 33% Reduced Sucrose Frosted Flakes + 15 ppm compound vs 100% Sucrose Frosted Flakes): not significantly different in sweetness | Sample selected as sweeter by panelists, Total ([4]; Flavored Water with 6% Sucrose + 2.44 ppm (6.49 μM) compound chosen, vs 9% Sucrose, n = 42): 20 | Sweetness comparison (conclusion) ([4]; Flavored Water with 6% Sucrose + 2.44 ppm (6.49 μM) compound vs 9% Sucrose, p>0.10): not significantly different in sweetness

OC[C@H]1O[C@@](CO)(O[C@H]2O[C@H](CO)[C@@H](O)[C@H](O)[C@H]2O)[C@@H](O)[C@@H]1O [Sucrose, sucrose]
Sample selected as more sweet by panelists, Total [5]: 9
